In patent publication US20260055083A1, “APOL1 INHIBITORS AND METHODS OF USE” (Maze Therapeutics, Inc., priority 2022, published 2026):

Key:
APOL1 G2 [1] = target: T1, APOL1 G2 (Homo sapiens, UniProt O14791, DEL388-389); experiment: APOL1 G2 HEK293 rescue of cell death caused by overexpression of APOL1 (CellTiter-Glo); type: cell-based; details: HEK293/T-REx APOL1 G2 clone #2, doxycycline induction, 17 hours, CellTiter-Glo luminescence; reversal of cell death; geometric mean of at least 2 assay runs
T1 construct: expressed in transfected cells; host or cells: HEK293/T-REx APOL1 G2 clone #2, doxycycline-inducible
T1 sequence (O14791 with tags, fused parts or gaps DEL388-389): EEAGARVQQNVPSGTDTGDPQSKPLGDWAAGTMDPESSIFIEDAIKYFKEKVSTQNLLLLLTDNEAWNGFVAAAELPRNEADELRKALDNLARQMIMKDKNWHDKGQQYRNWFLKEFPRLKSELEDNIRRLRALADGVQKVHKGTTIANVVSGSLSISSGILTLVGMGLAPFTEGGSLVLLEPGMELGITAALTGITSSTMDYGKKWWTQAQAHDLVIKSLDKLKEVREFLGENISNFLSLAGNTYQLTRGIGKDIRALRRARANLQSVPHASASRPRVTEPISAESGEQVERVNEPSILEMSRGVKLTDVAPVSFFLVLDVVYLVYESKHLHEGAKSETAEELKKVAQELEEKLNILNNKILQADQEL
Experimental: A HEK293 clonal cell line overexpressing APOL1 G2 (HEK293/T-REx APOL1 G2/clone #2) was maintained in 1×DMEM-GlutaMax (Gibco, 10569-010) media with 10% tetracycline-free FBS (Takara Bio USA, 631101), 5 μg/mL Blasticidin (Gibco, A1113903), and 100 μg/mL Zeocin (Invitrogen, R25001) in T75 flasks. In preparation for the assay, this media was aspirated and 2 mL of prewarmed TrypLE Express (Gibco, 12605-010) was added to a flask to detach cells. The flask was then incubated (humidified, 37° C. with 5% CO2) for 3-5 minutes. Afterwards, 8 mL of prewarmed cell assay media (1×DMEM-GlutaMax media with 10% tetracycline-free FBS) was added to the trypsinized cells. The suspension was gently mixed, and cells were counted using a Countess Cell Counting Chamber (Invitrogen). The suspension was diluted using cell assay media to generate a working stock solution (166,667 cells/mL). Using a MultiDrop Combi (Thermo Electron Corp), 30 μL (final cell density=5,000 cells/well) of the working stock solution was dispensed into each well of white 384-well assay ready plates (Nunc™, 164610) containing 6 ng/mL doxycycline, to induce APOL1 expression, and compound. All compounds were plated in a duplicate 8-point dilution series that consisted of 3-fold stepwise dilutions (0.5% DMSO final). Assay plates were incubated (humidified, 37° C. with 5% CO2) for 17 hours. After the incubation, the plates were equilibrated at room temperature for 1 hour. Next, 15 μl of CellTiter-Glo® reagent (Promega, G7570) was added to each well using a MultiDrop Combi. Plates were placed on an orbital shaker (500 rpm) for 5 minutes to induce cell lysis and then incubated at room temperature for 10 minutes. Luminescence was measured on an Envision plate reader. Collaborative Drug Discovery software was utilized for graphing data. Plots were generated using a four parameter logistic curve fit.
Table B2 below provides the results from this experiment. Unless otherwise specified, EC50 values are reported as the geometric mean of at least 2 assay runs on separate days. Each run represents the average of a technical replicate, where each compound was assayed twice in the same plate. A superscript t symbol indicates a value from the average of a technical replicate from a single assay run, where each compound was assayed twice in the same plate. Compounds in Table B2 are referred to by the corresponding Compound Number in Table 1, which is also referred to in the synthetic examples. When one or more of the numbered compounds are identified by stereochemistry (for example, (R)- or (S)-), the specific stereoisomer for which data is provided in Table B2 may be identified by the elution order of such compound as described in the synthetic examples. To illustrate, Compound 2 is the first-eluting enantiomer of step 4 of Example 1 and Compound 3 is the second-eluting enantiomer of step 4 of Example 1. Further, by way of illustration, Compound 27 is the first-eluting enantiomeric mixture in step 4 of Example 7 and Compound 28 is the second-eluting enantiomeric mixture in step 4 of Example 7. Then, Compound 27 is separated into Compound 29 (the first-eluting enantiomer) and Compound 30 (the second-eluting enantiomer) in Example 8, and Compound 28 is separated into Compound 31 (the first-eluting enantiomer) and Compound 32 (the second-eluting enantiomer) in Example 8. Absolute stereochemistry of such compounds may be identified by methods known in the art.
Rescue EC50 values reported in Table B2 below represent the half-maximal effective concentration for reversal of cell death caused by overexpression of APOL1.

APOL1 G2 [2] = target: T1, APOL1 G2; experiment: APOL1 G2 FLIPR calcium influx assay (HEK T-REx/GCaMP6f/APOL1 G2 K6.3 cells); type: cell-based; details: HEK293 clone expressing GCaMP6f, doxycycline-induced APOL1 G2; prevention of calcium influx; geometric mean of at least 2 assay runs
Experimental: A HEK293 clonal cell line was generated to stably express GCaMP6f, a genetically encoded calcium indicator, and inducibly express APOL1 G2 (HEK T-REx/GCaMP6f/APOL1 G2 K6.3). Cells were maintained in the following standard complete medium: DMEM with 4.5 g/L glucose and sodium pyruvate (BioWhittaker, Lonza, BE12-614F), supplemented with 10% FBS Performance Plus (Gibco, 16000044), 1% penicillin-streptomycin (BioWhittaker, DE17-602E), 2 mM ultraglutamine-1 (BioWhittaker cat. BE 17-605/U1), 50 μg/mL Zeocin (InvivoGen, ant-zn), 2.5 μg/mL Blasticidin (InvivoGen, ant-bl-5), and 25 μg/mL Hygromycin (InvivoGen, ant-hg). Standard propagation conditions consisted of plating 9×10^6, 4×10^6, 2×10^6 cells in a T225 flasks to be processed after 2, 3, or 4 days, respectively.
A source plate was generated containing 20 serially diluted compounds in DMSO (duplicate 8-point dose response). Next, 0.8 μL of compounds were transferred from the source plate to a destination plate prefilled with 79.2 μL of Ca^2+ free Tyrode's buffer (130 mM NaCl, 5 mM KCl, 1 mM MgCl2, 5 mM NaHCO3, 20 mM HEPES at pH 7.4). The destination plate was placed on a plate shaker (5 seconds at 2000 rpm) to mix. […] All transfer and mixing steps were conducted with an CyBi®-Well dispenser.
Cells were split by gently washing with DPBS (Euroclone, ECB4004L), followed by a 5-minute incubation (humidified, 37° C. with 5% CO2) with trypsin-EDTA solution (Euroclone, ECB3052D). Detached cells were diluted with standard complete medium without selective agents, counted, and plated in a 384 MTP microplate (GR4332CPL, Twin Helix) (10,000 cells/well in 25 μl/well) using a MATRIX WellMate dispenser. Plates were placed into a humidified incubator (37° C. with 5% CO2) overnight. The following day, 20 μL of doxycycline (Sigma, D9891) at 20 ng/mL in standard complete medium was added to cells with a CyBi®Drop dispenser to induce APOL1 G2 expression. After a 6-hour incubation (humidified, 37° C. with 5% CO2), cells were washed 3 times with Ca^2+ free Tyrode's Buffer (130 mM NaCl, 5 mM KCl, 1 mM MgCl2, 5 mM NaHCO3, 20 mM HEPES at pH 7.4) using a BIOTEK Microplate washer, such that 10 μL of buffer remained in each well after the final wash. Assay plates were then stored at room temperature for 10 minutes. Next, 10 μL of diluted compounds were transferred to the assay plate from the 2× compound plate using a CyBi®-Well dispenser. Compound incubation was then carried out at room temperature for 10 minutes. The assay plate was transferred to the […] and 20 μL of 10 mM Ca^2+ (final concentration=5 mM) Tyrode's buffer was injected.
Table B1 below summarizes the data from this experiment. Unless otherwise specified, AC50 and values are reported as the geometric mean of at least 2 assay runs on separate days. Each run represents the average of a technical replicate, where each compound was assayed twice in the same plate. A superscript t symbol indicates a value from the average of a technical replicate from a single assay run, where each compound was assayed twice in the same plate.
The AC50 values in Table B1 below reflect the compound's ability to prevent calcium influx by inhibiting APOL1. […] Compounds in Table B1 are referred to by the corresponding Compound Number in Table 1, which is also referred to in the synthetic examples. When one or more of the numbered compounds are identified by stereochemistry (for example, (R)- or (S)-), the specific stereoisomer for which data is provided in Table B1 may be identified by the elution order of such compound as described in the synthetic examples. To illustrate, Compound 2 is the first-eluting enantiomer of step 4 of Example 1 and Compound 3 is the second-eluting enantiomer of step 4 of Example 1. Further, by way of illustration, Compound 27 is the first-eluting enantiomeric mixture in step 4 of Example 7 and Compound 28 is the second-eluting enantiomeric mixture in step 4 of Example 7. […]

Structure (SMILES)	EC50 (APOL1 G2 [1]) [nM]	AC50 (APOL1 G2 [2]) [nM]
CC(c1ccc(OC[C@@H]2CN(CCc3cccc(Cl)c3)CCN2)cc1)S(C)(=O)=O (stereo partly drawn) [Compound 140, (3S)-1-[2-(3-chlorophenyl)ethyl]-3-{[4-(1-methanesulfonylethyl)phenoxy]methyl}piperazine]	756	379
C[C@@H]1C[C@H](COc2cnc(S(C)(=O)=O)cn2)CN1CCc1cccc(C#N)c1 [Compound 1, 3-(2-((2R,4S)-2-methyl-4-(((5-(methylsulfonyl)pyrazin-2-yl)oxy)methyl)pyrrolidin-1-yl)ethyl)benzonitrile]	53.7	39.7
C[C@@H]1C[C@H](COc2ccc(S(C)(=O)=O)cc2)CN1C1CCc2ccc(C#N)cc2C1 (single isomer, unassigned) [Compound 136, (7S or 7R)-7-[(2R,4S)-4-[(4-methanesulfonylphenoxy)methyl]-2-methylpyrrolidin-1-yl]-5,6,7,8-tetrahydronaphthalene-2-carbonitrile]	704	707
CC(=O)N1CC(S(=O)(=O)c2ccc(OC[C@@H]3CN(CCc4cccc(Cl)c4)CCN3)cc2)C1 [Compound 109, 1-[3-(4-{[(2S)-4-[2-(3-chlorophenyl)ethyl]piperazin-2-yl]methoxy}benzenesulfonyl)azetidin-1-yl]ethan-1-one]	224	746
CC(c1ccc(OC[C@@H]2CN(CCc3cccc(Cl)c3)CCN2)cc1)S(C)(=O)=O (single isomer, unassigned) [Compound 141, (3S)-1-[2-(3-chlorophenyl)ethyl]-3-({4-[(1R) or (1S)-1-methanesulfonylethyl]phenoxy}methyl)piperazine]	234	160
C[C@@H]1C[C@H](COc2ccc(S(=O)(=O)C3CNC3)cc2)CN1C1CCc2ccc(C#N)cc2C1 (single isomer, unassigned) [Compound 28]	401	
Cc1cc(OC[C@@H]2CN(CCc3cccc(C#N)c3)C[C@H]2C)cnc1S(C)(=O)=O [Compound 87, 3-{2-[(3S,4S)-3-{[(6-methanesulfonyl-5-methylpyridin-3-yl)oxy]methyl}-4-methylpyrrolidin-1-yl]ethyl}benzonitrile]	185	
C[C@H]1CN(CCc2cccc(Cl)c2)C[C@@H]1COc1ccc(S(C)(=O)=O)cc1 [Compound 92, (3R,4R)-1-[2-(3-chlorophenyl)ethyl]-3-[(4-methanesulfonylphenoxy)methyl]-4-methylpyrrolidine]	2070	
CN=S(C)(=O)c1ccc(OC[C@H]2C[C@@H](C)N(C3CCc4ccc(C#N)cc4C3)C2)cc1 (single isomer, unassigned) [Compound 37, (7R or 7S)-7-[(2R,4S)-2-methyl-4-({4-[methyl(methylimino)oxo-λ^6-sulfanyl]phenoxy}methyl)pyrrolidin-1-yl]-5,6,7,8-tetrahydronaphthalene-2-carbonitrile]	769	
C[C@@H]1CN(CC(O)c2cccc(Cl)c2)C[C@H]1COc1ccc(S(C)(=O)=O)cc1 (single isomer, unassigned) [Compound 91, (1R) or (1S)-1-(3-chlorophenyl)-2-[trans-3-[(4-methanesulfonylphenoxy)methyl]-4-methylpyrrolidin-1-yl]ethan-1-ol]	1610	
COC(=O)CCCS(=O)(=O)c1ccc(OC[C@@H]2CN(CCc3cccc(Cl)c3)C[C@H]2C)cc1 [Compound 79, methyl 4-(4-{[(3S,4S)-1-[2-(3-chlorophenyl)ethyl]-4-methylpyrrolidin-3-yl]methoxy}benzenesulfonyl)butanoate]	334	
C[C@@H]1C[C@H](COc2ccc(S(=O)(=O)C3CNC3)cc2)CN1C1CCc2ccc(C#N)cc2C1 (single isomer, unassigned) [Compound 27]	145	
C[C@@H]1CN(CCc2cccc(C#N)c2)C[C@H]1COc1cc(F)c(S(C)(=O)=O)c(F)c1 [Compound 81, 3-{2-[(3S,4S)-3-[(3,5-difluoro-4-methanesulfonylphenoxy)methyl]-4-methylpyrrolidin-1-yl]ethyl}benzonitrile]	144	
C[C@@H]1C[C@H](COc2ccc(S(=O)(=O)C3CNC3)cc2)CN1C1CCc2ccc(C#N)cc2C1 (single isomer, unassigned) [Compound 29]	58.4	
